PubChem BioAssay AID248 (DTP/NCI, 2004)
Inconclusive results and toxic doses are left out. Cut-off read from the data, not from the text of the source: active = T/C of 150% or more; inactive = T/C below 125%.

Test system: L1210 leukemia ip in BDF1 mice, survival T/C
Experiment: NCI In Vivo Anticancer Drug Screen. Data for tumor model L1210 Leukemia (intraperitoneal) in B6D2F1 (BDF1) mice
Conditions: endpoint: mean survival time, higher = longer survival
Method in brief: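 Survival endpoint. Drug-treated group vs vehicle group, expressed as T divided by C. Tumor passaged by transplantation.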

[1] = dose: 75.0 mg/kg/injection, schedule: Q01DX001 (ip), vehicle: saline
[2] = dose: 150.0 mg/kg/injection, schedule: Q01DX001 (ip), vehicle: saline
[3] = dose: 100.0 mg/kg/injection, schedule: Q01DX009 (ip), vehicle: other
[4] = dose: 100.0 mg/kg/injection, schedule: Q01DX009 (ip), vehicle: saline with Tween-80
[5] = dose: 200.0 mg/kg/injection, schedule: Q01DX009 (ip), vehicle: other
[6] = dose: 200.0 mg/kg/injection, schedule: Q01DX009 (ip), vehicle: saline with Tween-80
[7] = dose: 400.0 mg/kg/injection, schedule: Q01DX009 (ip), vehicle: other
[8] = dose: 400.0 mg/kg/injection, schedule: Q01DX009 (ip), vehicle: saline with Tween-80
[9] = dose: 100.0 mg/kg/injection, schedule: Q01DX009 (ip), vehicle: saline
[10] = dose: 200.0 mg/kg/injection, schedule: Q01DX009 (ip), vehicle: saline
[11] = dose: 400.0 mg/kg/injection, schedule: Q01DX009 (ip), vehicle: saline
[12] = dose: 100.0 mg/kg/injection, schedule: Q04DX003 (ip), vehicle: Klucel (hydroxypropylcellulose) (HPC)
[13] = dose: 200.0 mg/kg/injection, schedule: Q04DX003 (ip), vehicle: Klucel (hydroxypropylcellulose) (HPC)
[14] = dose: 400.0 mg/kg/injection, schedule: Q04DX003 (ip), vehicle: Klucel (hydroxypropylcellulose) (HPC)
[15] = dose: 100.0 mg/kg/injection, schedule: Q04DX003 (ip), vehicle: saline
[16] = dose: 200.0 mg/kg/injection, schedule: Q04DX003 (ip), vehicle: saline
[17] = dose: 400.0 mg/kg/injection, schedule: Q04DX003 (ip), vehicle: saline
[18] = dose: 50.0 mg/kg/injection, schedule: Q01DX009 (ip), vehicle: saline
[19] = dose: 50.0 mg/kg/injection, schedule: Q01DX009 (ip), vehicle: saline with Tween-80

Measured: T/C

O=[N+]([O-])c1cccc(OCCOc2cccc([N+](=O)[O-])c2)c1
inactive: dose: 100.0 mg/kg/injection, schedule: Q01DX001 (ip), vehicle: saline 97 % of control | dose: 200.0 mg/kg/injection, schedule: Q01DX001 (ip), vehicle: saline 96 % of control | dose: 400.0 mg/kg/injection, schedule: Q01DX001 (ip), vehicle: saline 103 % of control

COc1cccc(C(Cc2ccccc2)NCc2ccccc2)c1 (centres undefined)
inactive: dose: 100.0 mg/kg/injection, schedule: Q01DX009 (ip), vehicle: Klucel (hydroxypropylcellulose) (HPC) 91 % of control | dose: 200.0 mg/kg/injection, schedule: Q01DX009 (ip), vehicle: Klucel (hydroxypropylcellulose) (HPC) 91 % of control | dose: 400.0 mg/kg/injection, schedule: Q01DX009 (ip), vehicle: Klucel (hydroxypropylcellulose) (HPC) 96 % of control

Oc1c(CN2CCCC2)cc(Nc2nc(/C=C/c3ccc(Cl)cc3)nc(Cl)c2-c2ccc(Cl)cc2)cc1CN1CCCC1
inactive: [1] 96 % of control | dose: 75.0 mg/kg/injection, schedule: Q04DX003 (ip), vehicle: Klucel (hydroxypropylcellulose) (HPC) 98 % of control | [2] 96 % of control | dose: 150.0 mg/kg/injection, schedule: Q04DX003 (ip), vehicle: Klucel (hydroxypropylcellulose) (HPC) 91 % of control | dose: 300.0 mg/kg/injection, schedule: Q01DX001 (ip), vehicle: saline 93 % of control | dose: 300.0 mg/kg/injection, schedule: Q04DX003 (ip), vehicle: Klucel (hydroxypropylcellulose) (HPC) 91 % of control

CC1(O)CC2CCC1C2 (centres undefined)
inactive: [3] 102 % of control | [4] 92 % of control | dose: 100.0 mg/kg/injection, schedule: Q04DX003 (ip), vehicle: other 95 % of control | [5] 120 % of control | [6] 106 % of control | dose: 200.0 mg/kg/injection, schedule: Q04DX003 (ip), vehicle: other 100 % of control | [7] 104 % of control | [8] 92 % of control | dose: 400.0 mg/kg/injection, schedule: Q04DX003 (ip), vehicle: other 91 % of control

CCCCOB(OCCCC)c1ccc(SC)cc1
inactive: dose: 100.0 mg/kg/injection, schedule: Q04DX003 (ip), vehicle: alcohol 111 % of control | dose: 200.0 mg/kg/injection, schedule: Q04DX003 (ip), vehicle: alcohol 103 % of control | dose: 400.0 mg/kg/injection, schedule: Q04DX003 (ip), vehicle: alcohol 118 % of control

CCCCCCCCCCCCCCCC[N+]1(C)CCS(C)(OS(=O)(=O)OC)CC1 (centres undefined)
inactive: dose: 6.25 mg/kg/injection, schedule: Q01DX001 (ip), vehicle: saline 95 % of control | dose: 12.5 mg/kg/injection, schedule: Q01DX001 (ip), vehicle: saline 88 % of control | dose: 25.0 mg/kg/injection, schedule: Q01DX001 (ip), vehicle: saline 88 % of control

O=C(Nc1ccc(Cl)cc1Cl)Nc1cc(C(F)(F)F)ccc1Cl
inactive: [9] 98 % of control | [10] 95 % of control | [11] 92 % of control

CCC(c1ccc2cc(OC)ccc2c1)C(CC(=O)O)C(=O)OC (centres undefined)
inactive: [12] 100 % of control | [13] 96 % of control | [14] 91 % of control

O=C(N1C(c2ccc(Cl)cc2)CC2(CC1c1ccc(Cl)cc1)SSC1(CC(c3ccc(Cl)cc3)N(C(=O)C(F)(F)F)C(c3ccc(Cl)cc3)C1)S2)C(F)(F)F (centres undefined)
inactive: [9] 102 % of control | [15] 95 % of control | [10] 98 % of control | [16] 97 % of control | [11] 105 % of control | [17] 95 % of control

CCCCCCC(=O)OCCN1CCN(CC/C=C2\c3ccccc3Sc3ccc(C(F)(F)F)cc32)CC1
inactive: dose: 50.0 mg/kg/injection, schedule: Q01DX001 (ip), vehicle: carboxymethylcellulose (CMC) 94 % of control | [18] 123 % of control | dose: 100.0 mg/kg/injection, schedule: Q01DX001 (ip), vehicle: carboxymethylcellulose (CMC) 92 % of control | [9] 108 % of control | dose: 132.0 mg/kg/injection, schedule: Q04DX003 (ip), vehicle: saline 103 % of control | dose: 200.0 mg/kg/injection, schedule: Q01DX001 (ip), vehicle: carboxymethylcellulose (CMC) 94 % of control | [16] 110 % of control | dose: 400.0 mg/kg/injection, schedule: Q01DX001 (ip), vehicle: carboxymethylcellulose (CMC) 94 % of control

CCCCCC/C=N/Nc1ccc([N+](=O)[O-])cc1[N+](=O)[O-]
inactive: [19] 101 % of control | [4] 102 % of control | [6] 91 % of control

CC(N)(Cc1ccc(O)c(O)c1)C(=O)O (centres undefined)
inactive: dose: 25.0 mg/kg/injection, schedule: Q01DX009 (ip), vehicle: saline 109 % of control | dose: 25.0 mg/kg/injection, schedule: Q04DX003 (ip), vehicle: saline 103 % of control | [18] 101 % of control | dose: 50.0 mg/kg/injection, schedule: Q04DX003 (ip), vehicle: saline 95 % of control | [9] 105 % of control | [15] 103 % of control | [10] 111 % of control | [16] 106 % of control | [11] 117 % of control | [17] 103 % of control

COc1cc(OC)c(Br)c(OC)c1
inactive: [3] 108 % of control | [15] 94 % of control | [5] 93 % of control | [16] 96 % of control | [7] 101 % of control | [17] 97 % of control

Cc1nc(Cl)c(C#N)nc1C
inactive: [19] 100 % of control | [4] 96 % of control | dose: 100.0 mg/kg/injection, schedule: Q04DX003 (ip), vehicle: saline with Tween-80 100 % of control | [6] 89 % of control | dose: 200.0 mg/kg/injection, schedule: Q04DX003 (ip), vehicle: saline with Tween-80 94 % of control

CSc1cccc(NC(=O)NCCCl)c1
inactive: [12] 104 % of control | [13] 103 % of control | [14] 93 % of control

C[N+]1(CCl)CCOCC1
inactive: dose: 1.74 mg/kg/injection, schedule: Q01DX009 (ip), vehicle: saline 104 % of control | dose: 2.6 mg/kg/injection, schedule: Q01DX009 (ip), vehicle: saline 104 % of control | dose: 4.0 mg/kg/injection, schedule: Q01DX001 (ip), vehicle: saline 105 % of control | dose: 4.0 mg/kg/injection, schedule: Q01DX009 (ip), vehicle: saline 94 % of control | dose: 4.0 mg/kg/injection, schedule: Q04DX003 (ip), vehicle: saline 100 % of control | dose: 4.0 mg/kg/injection, schedule: Q08DX002 (ip), vehicle: saline 105 % of control | dose: 6.0 mg/kg/injection, schedule: Q01DX001 (ip), vehicle: saline 102 % of control | dose: 6.0 mg/kg/injection, schedule: Q01DX009 (ip), vehicle: saline 102 % of control | dose: 6.0 mg/kg/injection, schedule: Q04DX003 (ip), vehicle: saline 98 % of control | dose: 6.0 mg/kg/injection, schedule: Q08DX002 (ip), vehicle: saline 111 % of control | dose: 9.0 mg/kg/injection, schedule: Q01DX009 (ip), vehicle: saline 100 % of control | dose: 10.0 mg/kg/injection, schedule: Q01DX001 (ip), vehicle: saline 102 % of control | dose: 10.0 mg/kg/injection, schedule: Q04DX003 (ip), vehicle: saline 105 % of control | dose: 10.0 mg/kg/injection, schedule: Q08DX002 (ip), vehicle: saline 104 % of control | dose: 14.0 mg/kg/injection, schedule: Q01DX001 (ip), vehicle: saline 104 % of control | dose: 14.0 mg/kg/injection, schedule: Q04DX003 (ip), vehicle: saline 102 % of control | dose: 14.0 mg/kg/injection, schedule: Q08DX002 (ip), vehicle: saline 107 % of control | dose: 21.0 mg/kg/injection, schedule: Q01DX001 (ip), vehicle: saline 102 % of control | dose: 21.0 mg/kg/injection, schedule: Q04DX003 (ip), vehicle: saline 100 % of control | dose: 21.0 mg/kg/injection, schedule: Q08DX002 (ip), vehicle: saline 100 % of control | [1] 98 % of control | [2] 107 % of control

O=[N+]([O-])c1ccc2c([N+](=O)[O-])ccc3c2c1CC3
inactive: [4] 94 % of control | [6] 90 % of control | [8] 92 % of control
